# Results: patent US20060094790A1, “Use of sphingosine kinase activator as skin disease treating agent and method for treating skin diseases using the same” (priority 2004, published 2006)
# Tests used:
# human body = conditions: in vivo
# Method: (§1) Those tests were performed based on “Toxicity Test Standards for Pharmaceutical Products” disclosed by the Korea Food & Drug Administration.
# keratinocytes = assay: Differentiation of keratinocytes (western blotting of involucrin and keratin-1); format: cell-based; conditions: 10 μM, 48 hours, FIG. 2
# Method: In order to evaluate the effect of the above compound according to the present invention upon differentiation of keratinocytes, each of K6PC4, K6PC-5, K6PC-7 and K6PC-9 was dissolved in DMSO at a concentration of 10 μM and used as sample. Evaluation was performed by using the western blotting method. As differentiation markers, involucrin and keratine-1, which were differentiation markers of keratinocytes, were measured. Next, 48 hours after the treatment of samples, the culture solution was discarded and the cells were washed with PBS and collected by filtering. The collected cells were washed again and subjected to centrifugal separation to remove supernatant. The cells were dissolved in a solvent and subjected to centrifugal separation at 12,000 rpm for 10 minutes, thereby removing cell membranes, etc. Protein concentration was determined by the Bradford method. Proteins were separated by mini gel type SDS-PAGE (polyacrylamide gel electrohoresis) and transferred to a PVDF (polyvinylidene fluoride) membrane at 100V for 1 hour, so that gel-like proteins were subjected to blotting with a transfer membrane. Then, the membrane was colored with Ponceau S solution to determine whether transfer was accomplished or not. The membrane was blocked by using TTBS (TBS+0.1% Tween 20) solution containing 5% non-fat dried milk. In order to check the amount of involucrin as differentiation marker of keratinocytes, primary antibody involucrin (Neomarkers Co.) was diluted at a ratio of about 1/200 to 1.400, and keratin-1 (Covance Co.) was diluted at a ratio of about 1/1000. Reactions were performed overnight at 4° C. As secondary antibody, anti-mouse IgG and anti-rabbit IgG combined with horseradish peroxidase (HRP) was diluted at a ratio of 1:2000. Then, the secondary antibody was bonded to the primary antibody by making them react at room temperature for 1 hour. The membrane was washed with TTBS three times, reacted with an ECL substrate (Amersham Co.) for 1-3 minutes, and exposed to X-ray films.
# hairless mouse = assay: Recovery of calcium gradient on epidermis, acute disruption model by tape stripping; format: in vivo; conditions: 1.0% in PEG:EtOH=7:3, after tape stripping, compared to control
# Method: To determine the effect of recovering skin barrier effects obtained by the compound according to the present invention, the compound was evaluated for the effect of recovering a calcium ion gradient in the epidermis.
# The calcium gradient in the epidermis plays very important role in maintaining homoeostasis of the skin barrier function. For example, when a hairless mouse is subjected to acute disruption on its back by tape stripping, the calcium ion gradient in the epidermis is lost. Therefore, it is possible to evaluate the effect of a test sample upon recovery of a damaged skin barrier by observing recovery of the calcium gradient loss in an acute disruption model.
# In the following test, K6PC-5 according to the present invention was evaluated for the effect upon variations in calcium gradient in an acute disruption model.
# Tissues non-treated with the sample were provided as control, and tissues were collected right after the tape striping, and 3, 6 and 24 hours after the tape stripping. Then, the tissues treated with K6PC-5 (1.0% in PEG:EtOH=7:3) were compared with controls, which are treated by calcium ion capture cell chemical dyeing. More particularly, each freshly collected tissue sample was fixed with a fixing solution comprising 2% glutaraldehyde, 2% formaldehyde, 90 mM potassium oxalate and 1.4% sucrose and refrigerated at 4° C. […]
# rabbits = conditions: rabbit, in vivo
# Method: as §1
compound,measurement,setting,value
"CCCCCCCC(=O)C(CCCCCC)C(=O)NC(CO)CO (stereo not shown) [K6PC-5, N-(1,3-dihydroxyisopropyl)-2-hexyl-3-oxo-decanamide]",Human body application test result,human body,No irritation
same,"expression of differentiation markers (involucrin, keratin-1)",keratinocytes,expressed the differentiation markers
same,recovery of calcium gradient in the epidermis,hairless mouse,"began to be recovered, from 3 hours after the treatment, to form the normal calcium gradient rapidly"
same,Ophthalmic mucous membrane irritation test result,rabbits,No irritation
